This is an account of results in US12037324B2, “Biarylmethyl heterocycles” (Université de Montréal, priority 2016, dated 2024).

Where only a bound is given, the exact number is not on record here.

Experiment [1] has as its target T1, hAT1R (Homo sapiens, UniProt P30556).
T1 sequence (P30556 1-359): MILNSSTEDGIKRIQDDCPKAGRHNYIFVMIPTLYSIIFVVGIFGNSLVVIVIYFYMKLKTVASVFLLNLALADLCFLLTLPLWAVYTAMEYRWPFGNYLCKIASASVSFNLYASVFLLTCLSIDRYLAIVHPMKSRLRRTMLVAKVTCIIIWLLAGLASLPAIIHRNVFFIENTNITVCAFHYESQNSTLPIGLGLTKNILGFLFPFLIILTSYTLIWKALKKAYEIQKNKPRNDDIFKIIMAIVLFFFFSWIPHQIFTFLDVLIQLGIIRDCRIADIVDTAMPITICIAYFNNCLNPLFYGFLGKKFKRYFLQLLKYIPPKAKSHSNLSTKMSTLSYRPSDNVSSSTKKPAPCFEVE
Put plainly: cell-based. Particulars: section of the 42nd table ending at r951, example numbering restarts after the DiscoveRx section; read-out: β-arrestin2 EC50.

Experiment [2] concerns the target T1, hAT1R. Kind of experiment: cell-based. The following applies: agonist mode; for EC50: read-out: BRET P63 EC50. On the technique in general: Bioluminescence resonance energy transfer reports proximity on the nanometre scale.
Experiment [3] concerns the target T1, hAT1R. Put plainly: BRET Gq biosensor assay, agonist response, HEK293 cells. The following applies: section of the 42nd table directly before the BRET P63 section. In kind it is cell-based. The essentials: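 HEK293 cells co-transfected with signal-peptide-optimized hAT1R plus Gαq-Rluc, Gβ1 and GFP-Gγ1, assayed 48 h later in Tyrode's buffer pH 7.4. Coelenterazine (2 μM final) added, then compound; BRET2 (515/410 nm) read after 5 min at room temperature. EC50 by 4-parameter fit, normalized to unstimulated (0%) and maximal AngII (100%).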

The target of experiment [4] is T2, AGTR1 (Homo sapiens, UniProt P30556).
T2 construct: host or cells: Pathunter CHO-K1 AGTR1 β-arrestin cell line (CHO-K1)
T2 sequence (P30556 1-359): T1 sequence (P30556 1-359)
Put plainly: DiscoveRx β-arrestin2 recruitment assay (enzyme complementation, Pathunter CHO-K1 AGTR1 β-arrestin cell line). The format is cell-based. The following applies: DiscoveRx β-arrestin2 recruitment; for DiscoveRx β-arrestin2 Ymax (%): maximal response. The essentials:
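CHO-K1 cells expressing AGTR1 with β-arrestin2 enzyme-complementation reporter, plated 14-16 h ahead in 1% serum medium, then exposed to compounds for 90 min at 37° C. Chemiluminescence read after 1 h detection. EC50 (agonist) or IC50 (antagonist) from 4-parameter logistic fit; activity as percentage of All maximal effect.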
In general terms: Recruitment of arrestin is a read-out of receptor activation apart from second messengers.

The target of experiment [5] is T1, hAT1R. Kind of experiment: BRET β-arrestin2 biosensor assay, higher receptor expression (hAT1R 5 ng/well), HEK293 cells. The format is cell-based. The following applies: for EC50: High AT1R Expression.

As a reminder, the EC50 is the concentration that produces a half-maximal response.

For `CCCCc1nc(Cl)c(C(=O)O)n1Cc1ccc(-c2cc(-c3cn(C(C)C)nc3C(F)(F)F)ccc2-c2nn[nH]n2)cc1` [Example 388], the EC50 in experiment [1] amounted to 26.7 nM; in experiment [2], 39.8 nM; in experiment [3] it was 810 nM; in experiment [4] it was 44.7 nM; in experiment [5], 4.6 nM. Further, in experiment [2], the “BRET P63 Ymax” value is 30.4%. Besides, in experiment [4], the “DiscoveRx β-arrestin2 Ymax (%)” value came out at 71.7%. Also, the “BRET β-Arrestin2 High AT1R Expression Ymax (%)” value in experiment [5] stood at 96.2%.
On to `CCCCc1nc(Cl)c(C(=O)O)n1Cc1ccc(-c2cc(-c3ccccc3)ccc2-c2nn[nH]n2)cc1` [Example 384, 1-((6′-(2H-tetrazol-5-yl)-[1,1′:3′,1″-terphenyl]-4-yl)methyl)-2-butyl-4-chloro-1H-imidazole-5-carboxylic acid], for which the EC50 in experiment [1] is 10.8 nM; in experiment [2] it was above 10000 nM; in experiment [3] it was 39.1 nM; in experiment [4] it was 8 nM; in experiment [5] it was 6.9 nM. Moreover, the “DiscoveRx β-arrestin2 Ymax (%)” value in experiment [4] is 49.3%. The “BRET β-Arrestin2 High AT1R Expression Ymax (%)” value in experiment [5] came to 83.8%.
Turning to `CCCCC(=O)N(Cc1ccc(-c2cc(-c3cc(C)ccn3)ccc2-c2nn[nH]n2)cc1)C1(C(=O)O)CCCCC1` [Example 295], the half-maximal effective concentration (EC50) in experiment [1] is 39 nM; in experiment [2], 120 nM; in experiment [3], 217 nM; in experiment [4], 47.5 nM; in experiment [5], 14 nM. In addition, the “BRET P63 Ymax” value in experiment [2] is listed as 12.9%. Also, in experiment [4], the “DiscoveRx β-arrestin2 Ymax (%)” value is 60.3%. Besides, the “BRET β-Arrestin2 High AT1R Expression Ymax (%)” value in experiment [5] is 92.5%.
In the case of `CCCCc1nc(Cl)c(C(=O)O)n1Cc1ccc(-c2cc(-c3ccc(C(=O)N(C)C)cc3)ccc2-c2nn[nH]n2)cc1` [Example 390], the EC50 in experiment [1] is 97 nM; in experiment [2], 127 nM; in experiment [3] it was 23.7 nM; in experiment [4] it was 11.8 nM; in experiment [5], 24.4 nM. In addition, the “BRET P63 Ymax” value in experiment [2] was 11.9%. The “DiscoveRx β-arrestin2 Ymax (%)” value in experiment [4] is 53.5%. Further, in experiment [5], the “BRET β-Arrestin2 High AT1R Expression Ymax (%)” value is listed as 95.3%.
`CCCCc1nc(Cl)c(C(=O)O)n1Cc1ccc(-c2cc(-c3c[nH]c4ccccc34)ccc2-c2nn[nH]n2)cc1` [Example 391]: the EC50 in experiment [1] was 11 nM; in experiment [2], above 100000 nM; in experiment [3], 181 nM; in experiment [4], 45.8 nM; in experiment [5], 11.7 nM. Besides, the “DiscoveRx β-arrestin2 Ymax (%)” value in experiment [4] worked out at 23.3%. For the same molecule, in experiment [5], the “BRET β-Arrestin2 High AT1R Expression Ymax (%)” value was found to be 78.3%.
Take `CCOc1nc2cccc(C(=O)O)c2n1Cc1ccc(-c2cc(-c3ccccc3)ccc2C(=O)O)cc1` [Example 314, 1-((6′-carboxy-[1,1′:3′,1″-terphenyl]-4-yl)methyl)-2-ethoxy-1H-benzo[d]imidazole-7-carboxylic acid]: the EC50 in experiment [1] turned out to be 36.6 nM; in experiment [2] it was 67.8 nM; in experiment [3], 129 nM; in experiment [4], 3.5 nM; in experiment [5], 5.8 nM. Moreover, the “BRET P63 Ymax” value in experiment [2] was determined as 12.8%. Further, in experiment [4], the “DiscoveRx β-arrestin2 Ymax (%)” value amounted to 66.8%. Also, the “BRET β-Arrestin2 High AT1R Expression Ymax (%)” value in experiment [5] is reported as 90.3%.
In the case of `CCCCc1nc(Cl)c(C(=O)O)n1Cc1ccc(-c2cc(-c3ccccc3)ccc2-c2noc(=O)[nH]2)cc1` [Example 404, 2-butyl-4-chloro-1-((6′-(5-oxo-4,5-dihydro-1,2,4-oxadiazol-3-yl)-[1,1′:3′,1″-terphenyl]-4-yl)methyl)-1H-imidazole-5-carboxylic acid], the EC50 is 69.4 nM in experiment [1]; above 10000 nM in experiment [2]; 70.4 nM in experiment [3]; 9.6 nM in experiment [4]; 14.3 nM in experiment [5]. Also, the “DiscoveRx β-arrestin2 Ymax (%)” value in experiment [4] was 38.6%. Also, in experiment [5], the “BRET β-Arrestin2 High AT1R Expression Ymax (%)” value is given as 89.7%.
On to `CCCCc1nc(Cl)c(C(=O)O)n1Cc1ccc(-c2cc(-c3ccccc3)ccc2C(=O)O)cc1` [Example 410, 2-butyl-1-((6′-carboxy-[1,1′:3′,1″-terphenyl]-4-yl)methyl)-4-chloro-1H-imidazole-5-carboxylic acid], for which the EC50 in experiment [1] is 98.2 nM; in experiment [2] it was above 10000 nM; in experiment [3], above 100000 nM; in experiment [4], 26.9 nM; in experiment [5], 82.1 nM. Further, in experiment [4], the “DiscoveRx β-arrestin2 Ymax (%)” value amounted to 41.9%. The “BRET β-Arrestin2 High AT1R Expression Ymax (%)” value in experiment [5] turned out to be 69.7%.
In the case of `CCOc1nc2cccc(C(=O)O)c2n1Cc1ccc(-c2cc(-c3cccc(C)c3)ccc2C(=O)O)cc1` [Example 313, 1-((6′-carboxy-3″-methyl-[1,1′:3′,1″-terphenyl]-4-yl)methyl)-2-ethoxy-1H-benzo[d]imidazole-7-carboxylic acid], the concentration for a half-maximal effect (EC50) came to 21.5 nM in experiment [1]; 46.7 nM in experiment [2]; 82.1 nM in experiment [3]; 28.1 nM in experiment [4]; 7.7 nM in experiment [5]. Also, the “BRET P63 Ymax” value in experiment [2] is recorded as 6.3%. The “DiscoveRx β-arrestin2 Ymax (%)” value in experiment [4] was 46.1%. Moreover, the “BRET β-Arrestin2 High AT1R Expression Ymax (%)” value in experiment [5] is given as 92.9%.
Take `CCOc1nc2cccc(C(=O)O)c2n1Cc1ccc(-c2cc(-c3ccccc3)ccc2-c2noc(=O)[nH]2)cc1` [Example 311, 2-ethoxy-1-((6′-(5-oxo-4,5-dihydro-1,2,4-oxadiazol-3-yl)-[1,1′:3′,1″-terphenyl]-4-yl)methyl)-1H-benzo[d]imidazole-7-carboxylic acid]: the EC50 amounted to 4.2 nM in experiment [1]; 3.6 nM in experiment [2]; 18.1 nM in experiment [3]; 3.9 nM in experiment [4]; 1.5 nM in experiment [5]. In addition, the “BRET P63 Ymax” value in experiment [2] came to 13.2%. The “DiscoveRx β-arrestin2 Ymax (%)” value in experiment [4] came to 77.6%. The “BRET β-Arrestin2 High AT1R Expression Ymax (%)” value in experiment [5] came out at 92.0%.
With `CCOc1nc2cccc(C(=O)O)c2n1Cc1ccc(-c2cc(-c3c[nH]c4ccccc34)ccc2-c2noc(=O)[nH]2)cc1` [Example 322], the EC50 in experiment [1] amounted to 9.7 nM; in experiment [2], 53.7 nM; in experiment [3], 93.3 nM; in experiment [4], 39.2 nM; in experiment [5] it was 8.4 nM. Besides, the “BRET P63 Ymax” value in experiment [2] was determined as 5.1%. Also, the “DiscoveRx β-arrestin2 Ymax (%)” value in experiment [4] is given as 33.7%. The “BRET β-Arrestin2 High AT1R Expression Ymax (%)” value in experiment [5] is listed as 80.9%.
For `CCOc1nc2cccc(C(=O)O)c2n1Cc1ccc(-c2cc(-c3cnn(C(F)F)c3)ccc2-c2nn[nH]n2)cc1` [Example 327, 1-((5′-(1-(difluoromethyl)-1H-pyrazol-4-yl)-2′-(2H-tetrazol-5-yl)-[1,1′-biphenyl]-4-yl)methyl)-2-ethoxy-1H-benzo[d]imidazole-7-carboxylic acid], the EC50 in experiment [1] came out at 33 nM; in experiment [2] it was 26.9 nM; in experiment [3] it was 22.1 nM; in experiment [4] it was 9.4 nM. Also, the “BRET P63 Ymax” value in experiment [2] is 10.8%. For the same molecule, the “DiscoveRx β-arrestin2 Ymax (%)” value in experiment [4] was 64.2%.
In the case of `CCOc1nc2cccc(C(=O)O)c2n1Cc1ccc(-c2cc(Oc3ccccc3F)ccc2-c2nn[nH]n2)cc1` [Example 334], the EC50 in experiment [1] is 5.9 nM; in experiment [2], 15.7 nM; in experiment [3] it was 41.3 nM; in experiment [4], 10.8 nM. The “BRET P63 Ymax” value in experiment [2] was determined as 13.9%. In addition, the “DiscoveRx β-arrestin2 Ymax (%)” value in experiment [4] is reported as 73.5%.
As for `CCOc1nc2cccc(C(=O)O)c2n1Cc1ccc(-c2cc(Oc3ccc(F)cc3)ccc2-c2nn[nH]n2)cc1` [Example 336], the EC50 in experiment [1] was 12.4 nM; in experiment [2], above 10000 nM; in experiment [3], 47.2 nM; in experiment [4], 16.4 nM. Further, in experiment [4], the “DiscoveRx β-arrestin2 Ymax (%)” value is listed as 61.4%.
